The text below walks through data of article PMC7645381, “Development and application of a high-throughput screening assay for identification of small molecule inhibitors of the P. falciparum reticulocyte binding-like homologue 5 protein” (International Journal for Parasitology: Drugs and Drug …, 2020).

pEC50, pIC50: −log10 of the molar value. A value given as a limit tells only on which side of the number the result lay.

One data set relates to HepG2 cells. Description: HepG2 growth inhibition assay. In kind it is cell-based. Conditions: Homo sapiens, 10-point dilution series, 48 h, Cell Titre-Glo. As for the experimental part: HepG2 cells were cultured in Dulbeccos modified eagle's medium (DMEM) supplemented with 10% fetal calf serum (FCS), in a humidified incubator at 37 °C and 5% CO2. Ten-point compound titration assays were performed by treating cells (1 × 10^3) for 48 h in 384 well tissue culture treated plates (Greiner). Cytotoxicity was determined using Cell Titer Glo (Promega) and calculated as a percentage using DMSO as a positive growth control and 10 μM Bortezomib as a negative growth control. EC50 values were calculated using a 4-parameter log dose, non-linear regression analysis, with sigmoidal dose response (variable slope) curve fit using Graph Pad Prism (version 6.05). 0 and 100 constraint parameters were used for curve fitting. […]

In a further data set the target is T1, DCLK1 (Homo sapiens, UniProt O15075).
T1 construct: made in house
T1 sequence (O15075 372-649 limits assumed): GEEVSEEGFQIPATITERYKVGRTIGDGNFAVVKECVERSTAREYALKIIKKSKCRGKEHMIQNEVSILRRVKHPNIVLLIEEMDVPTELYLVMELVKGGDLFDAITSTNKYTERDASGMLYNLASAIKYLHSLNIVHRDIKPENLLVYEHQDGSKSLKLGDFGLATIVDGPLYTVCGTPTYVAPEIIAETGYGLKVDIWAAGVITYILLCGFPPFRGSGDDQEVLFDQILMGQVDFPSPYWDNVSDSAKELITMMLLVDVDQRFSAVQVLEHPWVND
Description: Differential scanning fluorimetry of control protein DCLK1. The conditions noted are these: DSF. The data set is classed as binding. As for the experimental part: Doublecortin-like kinase domain 1 (DCLK1) used as a control protein in differential scanning fluorimetry experiments and was recombinantly expressed and purified according to the previously described protocol ([Patel et al., 2016]).
(§1) Differential scanning fluorimetry assays were performed as described previously ([Murphy et al., 2013], [2014a], [2014b]) using a Rotor-Gene Q PCR. Briefly, purified PfRh5 was diluted in 20 mM Tris pH 8.0, 150 mM NaCl to achieve 10 μg per reaction and assayed with the appropriate concentration of inhibitor in a total reaction volume of 25 μL. SYPRO Orange (Molecular Probes, CA) was used as a fluorescence probe and detected at 530 nm. Compounds were titrated at final concentrations ranging from 5 μM to 80 μM final. Data was transformed and plotted using GraphPad Prism. Shown data are representative means of two technical experiments.

In another data set the target is PfRh5 (Plasmodium falciparum, UniProt Q8IFM5). Nature of the data set: Differential scanning fluorimetry of Rh5. In kind it is binding, P. falciparum. The conditions noted are these: DSF. The procedure:
as §1
In general terms: In DSF a fluorescence change marks the thermal transition of the protein.

A short description of data set [1]: Solubility in SPR running buffer. In kind it is physicochemical.
In a further data set the test system is P. falciparum D10. Description: P. falciparum D10 growth inhibition by flow cytometry. In kind it is cell-based. The conditions noted are these: Plasmodium falciparum, D10; growth inhibition by flow cytometry, 12-point dilution series, 72 h. As for the experimental part: Pranlukast and selected analogues were then evaluated in a P. falciparum parasite viability assay. For this assay, we followed the procedure described by [Gamo et al. (2010)], that used lactate dehydrogenase (LDH) as a readout for parasite viability. In this assay, 3D7 parasites were incubated over 72 h in the presence of increasing concentrations of compounds. […]. For a comparison, selected compounds were incubated in the presence of P. falciparum D10 parasites for 72 h (Table 1, Fig. S14) and growth inhibition measured by flow cytometry. […].
In general terms: In flow cytometry, cells or beads pass a laser one at a time.

Data set [2] has as its target P. falciparum Rh5 (Rh5 – basigin interaction) (Plasmodium falciparum, UniProt Q8IFM5). Nature of the data set: biochemical. In kind it is binding.
In another data set the test system is D10-PfPHG parasites. Nature of the data set: Schizont rupture assay. The data set is classed as cell-based, P. falciparum. The procedure:
D10-PfPHG parasites ([Wilson et al., 2010]) were cultured in human O^+ erythrocytes in RPMI-HEPES culture medium (pH 7.4, 50 μg/mL hypoxanthine, 25 mM NaHCO3, 20 μg/mL gentamicin, 0.5% Albumax II (Thermo Fisher Scientific) according to established protocols ([Trager and Jensen, 1976]) and maintained in an atmosphere of 1% O2, 4% CO2 and 95% N2. For assessment of merozoite invasion after schizont rupture, parasites were tightly synchronised to a 4 h window of invasion using heparin ([Boyle et al., 2010]; [Wilson et al., 2015]) and then grown for a further 42 h. Drug treatments were setup at 2–3% parasitaemia and 1% haematocrit in 50 μL volumes with a 1 in 10 dilution of drug added when parasites were 44–48 h post invasion. After 6 h of drug treatment and immediately after invasion was expected to finish, the assays were treated with 5 μg/mL ethidium bromide (EtBr, Bio-Rad) for 5 min prior to flow cytometry assessment of parasitaemia using a Becton Dickinson Accuri. Gating of newly invaded rings, free merozoites and unruptured late stages was achieved as per published methods ([Wilson et al., 2013]).
To determine if the modest activity of pranlukast and analogues in the parasite viability assay was a consequence of invasion inhibition, rather than inhibition at another stage of blood stage parasite development, we performed an assay that measures the effect of compound treatment on P. falciparum D10 asexual stage transition between late schizont and ring stages ([Wilson et al., 2013]). In this assay, highly synchronised mature schizont-stage parasites were incubated with pranlukast and selected analogues at 50 and 100 μM and the transition to newly invaded ring stage parasites was quantified by flow cytometry. In parallel, the rate of schizont rupture and merozoite release was quantified to assess whether any reduction in newly invaded ring stages was due to a block affecting merozoite release or development. […] Neither DMSO (at the maximal concentration used for the drug treatments of 0.1%) or a non-invasion inhibitory mAb control caused a reduction in merozoite invasion. […] […].

PfRh5, sequence (Q8IFM5 24-526): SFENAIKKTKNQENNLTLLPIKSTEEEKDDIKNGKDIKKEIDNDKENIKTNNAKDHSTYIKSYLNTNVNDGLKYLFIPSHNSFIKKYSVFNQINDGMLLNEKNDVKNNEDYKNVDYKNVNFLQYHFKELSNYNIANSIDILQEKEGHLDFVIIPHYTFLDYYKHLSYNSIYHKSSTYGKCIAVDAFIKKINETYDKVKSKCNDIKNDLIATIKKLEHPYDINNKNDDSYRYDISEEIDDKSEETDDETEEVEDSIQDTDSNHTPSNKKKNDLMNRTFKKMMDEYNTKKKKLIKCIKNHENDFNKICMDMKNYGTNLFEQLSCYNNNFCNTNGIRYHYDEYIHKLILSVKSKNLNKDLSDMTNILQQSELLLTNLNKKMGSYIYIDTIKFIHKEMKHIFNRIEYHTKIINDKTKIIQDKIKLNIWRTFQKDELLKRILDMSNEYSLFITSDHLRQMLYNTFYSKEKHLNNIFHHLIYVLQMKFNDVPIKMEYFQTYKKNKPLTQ
P. falciparum Rh5 (Rh5 – basigin interaction), sequence (Q8IFM5 24-526): as above

As for `O=C(Nc1cccc2c(=O)cc(-c3nnn[nH]3)oc12)c1ccc(OCCCCc2ccccc2)cc1` [pranlukast], the negative-log EC50 (pEC50) is less than 4.30 in the data set with HepG2 cells and 4.55 in the data set with P. falciparum D10. Also, the “effect on Tm of DCLK1” value on DCLK1 (concentration up to 20 μM) was “did not have a significant impact on the Tm of DCLK1”; on DCLK1 (high concentration (>40 μM)) it was “markedly lower Tm”. The “effect on Tm of Rh5” value at PfRh5 (concentrations of 0–20 μM) was “dose dependent increase in the Tm of Rh5”; on PfRh5 (high concentration (>40 μM)), “markedly lower Tm”. Further, in data set [1], the “solubility in the SPR running buffer” value is recorded as “limited solubility”. The molecule also showed a pIC50 in data set [2] of 4.92. The “merozoite invasion (newly invaded early ring stages)” value in the data set on D10-PfPHG parasites (50 and 100 μM, 6 h, flow cytometry) is “substantial reduction in the numbers of merozoites that had invaded and formed early ring stages”. The free merozoite numbers result in the data set on D10-PfPHG parasites (lowest concentration tested (50 μM)) was “minimal loss in free merozoite numbers”.

One may read the pEC50 as −log10 of the EC50, conventionally taken in molar units. Low readings indicate a high EC50, high ones a low EC50. Usually pIC50 stands for the negative decadic logarithm of the IC50, by convention in mol/L. Low values mean a high IC50, high ones a low IC50.
